Our source for the IC50 values is BindingDB's records for patent US20240002388 (Hutchison Medipharma, 2024).

In this assay the target is T1, Receptor-interacting serine/threonine-protein kinase 1 (Homo sapiens, UniProt Q13546).
T1 sequence (Q13546 whole entry): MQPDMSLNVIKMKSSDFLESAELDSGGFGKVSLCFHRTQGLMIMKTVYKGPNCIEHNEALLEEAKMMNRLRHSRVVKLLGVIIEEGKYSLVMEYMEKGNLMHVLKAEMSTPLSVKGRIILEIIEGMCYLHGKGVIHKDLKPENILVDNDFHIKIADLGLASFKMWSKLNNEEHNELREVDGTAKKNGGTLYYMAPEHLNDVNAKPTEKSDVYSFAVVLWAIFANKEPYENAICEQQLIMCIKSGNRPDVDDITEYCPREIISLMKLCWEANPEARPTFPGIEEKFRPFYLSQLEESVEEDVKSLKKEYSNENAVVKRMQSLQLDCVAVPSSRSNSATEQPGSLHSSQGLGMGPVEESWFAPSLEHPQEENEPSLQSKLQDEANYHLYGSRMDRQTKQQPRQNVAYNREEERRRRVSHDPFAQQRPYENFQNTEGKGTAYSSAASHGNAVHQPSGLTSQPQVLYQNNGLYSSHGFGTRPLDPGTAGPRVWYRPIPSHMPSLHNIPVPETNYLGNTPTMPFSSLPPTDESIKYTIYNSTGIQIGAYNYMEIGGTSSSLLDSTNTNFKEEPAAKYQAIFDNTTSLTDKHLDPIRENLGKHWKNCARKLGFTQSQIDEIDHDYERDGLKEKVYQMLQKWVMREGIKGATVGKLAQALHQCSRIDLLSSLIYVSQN
Briefly: RIPK1 Kinase Activity Assay. Here is the method:
ADP-Glo Kinase kit can be used to measure ADP level in kinase activity assay so as to distinguish the inhibitory effects of different compounds on RIPK1 kinase activity. The ADP-Glo assay was usually divided into three steps. Firstly, the kinase converted ATP to ADP and phosphorylated the substrate at the same time; secondly, ATP digestion reagent was added to degrade all ATP in the reaction system; finally, a detection reagent was added to reduce ADP to ATP, and energy from ATP was transferred to […] which thus emitting a chemical luminescence that can be detected. Assay procedure can refer to manufacture's technical manual.(2) Reagent Preparation:1.33× kinase buffer: 5× kinase buffer stock (250 mM of NaCl, 150 mM of MgCl2, 2.5 mg/ml BSA (bovine serum albumin), 0.1% CHAPS (3-[(3-cholamidopropyl)-dimethyl-ammonio]-1-propane sulfonate), and 5 mM of dithiothreitol) was diluted with water to 1.33× kinase buffer;RIPK1 enzyme solution: the kinase was dissolved in 1.33× kinase buffer to make 40 nM as the final working concentration;ATP solution: 10 mM ATP stock solution in water was dissolved in 1.33× kinase buffer to make 10 μM as the final working concentration;4× compound preparation: the compound was diluted in a 3-fold gradient, and finally 4% DMSO aqueous solution containing different concentrations of the compound was obtained. […]

As usually defined, the pIC50 is −log10 of the IC50, conventionally taken in molar units. A higher pIC50 goes with a small IC50.

pIC50: −log10 of the molar value.

As for `CC(C)n1cncc(-c2ccc(C3(NC(=O)c4nnc(Cc5ccccc5)[nH]4)CC3)cc2)c1=O` [US20240002388, Compound 14], the pIC50 was 7.74.
